Results on 4 molecules are retold here after the NIST ThermoML archive (doi:10.1016/j.tca.2006.03.011).

Series [1] can be described thus: Molar enthalpy of transition or fusion. Conditions: DSC.
The conditions of series [2]: DTA; for Normal melting temperature: Crystal 1.

Numbers after ± are expanded uncertainties.

For `CCCCCCCCCCCCCCCCCCCC` [eicosane], the “Molar enthalpy of transition or fusion” value in series [1] (Crystal 1) turned out to be 16.5 ± 0.43 kcal/mol. In addition, in series [2], the Normal melting temperature was found to be 38.5 ± 0.71 °C.
In the same order, the values of `c1ccc2ccccc2c1` [naphthalene] are 4.67 ± 0.141 kcal/mol and 81.54 ± 0.71 °C.
Consider `CCCCCCCCCCCCCCCCCCCCCCCCC` [pentacosane], for which the “Molar enthalpy of transition or fusion” value in series [1] (Crystal 1) was found to be 13.3 ± 0.359 kcal/mol; in series [1] (Crystal 2), 0.256 ± 0.0311 kcal/mol; in series [1] (Crystal 3) it was 5.71 ± 0.167 kcal/mol. The Normal melting temperature in series [2] is 52.77 ± 0.71 °C. For the same molecule, the Triple point temperature in series [2] (Crystal 2) stood at 312.9 ± 0.71 K; in series [2] (Crystal 3), 309 ± 0.71 K.
`CCCCCCCCCCCCCCCCCCCCCCCCCCCCCCCCCCCC` [hexatriacontane]: the “Molar enthalpy of transition or fusion” value in series [1] (Crystal 1) turned out to be 19.5 ± 0.502 kcal/mol; in series [1] (Crystal 2) it was 5.91 ± 0.172 kcal/mol; in series [1] (Crystal 3) it was 2.8 ± 0.0932 kcal/mol. Besides, the Normal melting temperature in series [2] worked out at 77.04 ± 0.71 °C. For the same molecule, the Triple point temperature in series [2] (Crystal 2) is listed as 348.28 ± 0.71 K; in series [2] (Crystal 3) it was 347.33 ± 0.71 K.
